Measured values as given in DBAASP.
In brackets after ≈: the same amount, converted by molar mass. Several values for one entry are separate records, joined by “and”; a condition that tells them apart may be missing. Equal entries are not always repeated.

How the values were obtained:
Test in all cases: ≥ marks a high value that may be exact or a test limit, other limits are often not marked, values filed in µg/mL are converted to µM
[1] = system: Bacteroides fragilis
[2] = system: Candida albicans ATCC 90028
[3] = system: Cutibacterium acnes ATCC 11828
[4] = system: Proteus mirabilis ATCC 25933
[5] = system: Clostridium tertium ATCC 19465
[6] = system: Peptoniphilus asaccharolyticus ATCC 29743
[7] = system: Salmonella enterica subsp. enterica serovar Typhimurium LT2
[8] = system: Fusobacterium varium ATCC 27725
[9] = system: Bacteroides fragilis ATCC 25285
[10] = system: Prevotella melaninogenica
[11] = system: Pseudomonas aeruginosa ATCC 27853
[12] = system: Staphylococcus aureus NCTC 8325
[13] = system: Escherichia coli ATCC 25922
[14] = system: Fusobacterium nucleatum
[15] = system: Enterococcus faecalis ATCC 29212
[16] = system: Clostridium septicum
[17] = system: Peptostreptococcus anaerobius
[18] = system: Klebsiella pneumoniae KK3 9904
[19] = system: Clostridium perfringens ATCC 10543
[20] = system: Cutibacterium acnes
[21] = system: Staphylococcus aureus T17/13
[22] = system: Enterobacter cloacae HNTCC 53001
[23] = system: Staphylococcus epidermidis RP62A
[24] = system: Staphylococcus aureus T7/5
[25] = system: Pseudomonas aeruginosa
[26] = system: Enterococcus faecium ATCC 51559
[27] = system: Enterococcus avium
[28] = system: Streptococcus intermedius
[29] = system: Staphylococcus aureus ATCC 25923
[30] = system: Gardnerella vaginalis ATCC 49145
[31] = system: Lactobacillus crispatus
[32] = system: Candida albicans
[33] = system: Staphylococcus aureus MR
[34] = system: Candida albicans ATCC 14053
[35] = system: Gardnerella vaginalis
[36] = system: Staphylococcus aureus
[37] = system: Streptococcus pasteurianus
[38] = system: Escherichia coli
[39] = system: Lactobacillus crispatus ATCC 33820
[40] = system: Staphylococcus aureus ATCC 49476
[41] = system: Enterococcus faecalis ATCC 51299
[42] = system: Gardnerella vaginalis ATCC 14018
[43] = system: Staphylococcus aureus ATCC 31007
[44] = system: Aeromonas hydrophila
[45] = system: Bacillus pumilus ATCC 63202
[46] = system: Bacillus subtilis ATCC 9372
[47] = system: Lactiplantibacillus plantarum ATCC 14917
[48] = system: Streptococcus anginosus
[49] = system: Lactobacillus gasseri ATCC 33323
[50] = system: Bacillus subtilis
[51] = system: Staphylococcus aureus ATCC 43300
[52] = system: Edwardsiella tarda
[53] = system: Streptococcus agalactiae
[54] = system: Lactobacillus jensenii ATCC 25258

Compound `CC[C@H](C)[C@H](NC(=O)[C@@H](N)CCCN=C(N)N)C(=O)NCC(=O)N[C@H](C(=O)N[C@@H](CC(C)C)C(=O)N[C@@H](CC(C)C)C(=O)N[C@@H](C)C(=O)N[C@@H](CCCN=C(N)N)C(=O)N[C@@H](CC(C)C)C(=O)N1CCC[C@H]1C(=O)N[C@@H](CCCCN)C(=O)N[C@@H](CC(C)C)C(=O)N[C@@H](Cc1ccccc1)C(=O)N[C@@H](CO)C(=O)N[C@@H](CC(C)C)C(=O)N[C@@H](Cc1ccccc1)C(=O)N[C@@H](CCCCN)C(=O)N[C@@H](CC(C)C)C(=O)N[C@@H](CCSC)C(=O)NCC(=O)N[C@@H](CCCCN)C(=O)N[C@@H](CCCCN)C(=O)N[C@H](C(=O)O)C(C)C)C(C)C` [RIGVLLARLPKLFSLFKLMGKKV] has an MIC [1] of no less than 50 µM, an MIC [2] of no less than 80 µM and an MIC [3] of 12.5 µM (≈ 32.9 µg/mL). For the same compound, the MIC [4] was no less than 100 µM, the MIC [5] was 12.5 µM (≈ 32.9 µg/mL) and the MIC [6] was no less than 50 µM. It also gave an MIC [7] of 25 µM (≈ 65.7 µg/mL), an MIC [8] of no less than 50 µM and an MIC [9] of no less than 50 µM. For the same compound, the MIC [10] was 6 µM (≈ 15.8 µg/mL), the MIC [11] was 6 µM (≈ 15.8 µg/mL) and the MIC [12] was no less than 40 µM. For the same compound, the MIC [13] was 2.5 µM (≈ 6.57 µg/mL), the MIC [14] was no less than 50 µM and the MIC [15] was 12.5 µM (≈ 32.9 µg/mL). The MIC [16] was no less than 50 µM, the MIC [17] was 25 µM (≈ 65.7 µg/mL) and the MIC [18] was 12.5 µM (≈ 32.9 µg/mL). It also gave an MIC [19] of 12.5 µM (≈ 32.9 µg/mL), an MIC [20] of 6 µM (≈ 15.8 µg/mL) and an MIC [21] of 10 µM (≈ 26.3 µg/mL). It also gave an MIC [22] of 6 µM (≈ 15.8 µg/mL), an MIC [23] of 6 µM (≈ 15.8 µg/mL) and an MIC [24] of 20 µM (≈ 52.6 µg/mL).

`CC[C@H](C)[C@H](NC(=O)[C@H](C)NC(=O)[C@H](CCCCN)NC(=O)CNC(=O)[C@H](C)NC(=O)[C@H](CO)NC(=O)[C@H](Cc1ccccc1)NC(=O)[C@H](CC(C)C)NC(=O)CNC(=O)CNC(=O)[C@@H](NC(=O)[C@@H](NC(=O)[C@H](Cc1cnc[nH]1)NC(=O)[C@H](Cc1cnc[nH]1)NC(=O)[C@@H](NC(=O)[C@@H](N)Cc1ccccc1)[C@@H](C)CC)[C@@H](C)CC)[C@@H](C)CC)C(=O)N[C@@H](Cc1cnc[nH]1)C(=O)N[C@@H](CCCN=C(N)N)C(=O)N[C@@H](CC(C)C)C(=O)N[C@H](C(=O)N[C@@H](CCCN=C(N)N)C(=O)N[C@@H](CCCN=C(N)N)C(=O)N[C@@H](CCCN=C(N)N)C(=O)N[C@@H](CCCN=C(N)N)C(=O)N[C@@H](CCCN=C(N)N)C(=O)O)[C@@H](C)CC` [FIHHIIGGLFSAGKAIHRLIRRRRR] gave an MIC [25] of 6.67 µM (≈ 19.9 µg/mL), an MIC [26] of 2.7 µM (≈ 8.05 µg/mL) and an MIC [27] of 0.926 µM (≈ 2.76 µg/mL). The MIC [28] was 5.24 µM (≈ 15.6 µg/mL), the MIC [29] was 2.7 µM and 5.4 µM and the MIC [30] was 1.31 µM (≈ 3.91 µg/mL). For the same compound, the MIC [31] was 29.6 µM (≈ 88.4 µg/mL), the MIC [11] was 21.5 µM (≈ 64 µg/mL) and the MIC [32] was 26.7 µM and 42.9 µM. It also gave an MIC [33] of 5.37 µM (≈ 16 µg/mL), an MIC [34] of 2.62 µM (≈ 7.81 µg/mL) and an MIC [13] of 42.9 µM (≈ 128 µg/mL). It also gave an MIC [35] of 1.85 µM (≈ 5.53 µg/mL), an MIC [36] of 5 µM (≈ 14.9 µg/mL) and an MIC [37] of 1.85 µM (≈ 5.53 µg/mL). The MIC [38] was 5 µM and 1.85 µM, the MIC [39] was no less than 41.9 µM and the MIC [40] was 2.68 µM (≈ 8 µg/mL). The MIC [41] was 10.8 µM (≈ 32.2 µg/mL), the MIC [42] was 1.31 µM and 2.62 µM and the MIC [43] was 5.4 µM (≈ 16.1 µg/mL). The MIC [44] was no less than 160 µM, the MIC [45] was 1.3 µM (≈ 3.88 µg/mL) and the MIC [46] was 2.7 µM (≈ 8.05 µg/mL). The MIC [47] was no less than 41.9 µM, the MIC [48] was 3.71 µM (≈ 11 µg/mL) and the MIC [49] was no less than 168 µM. For the same compound, the MIC [50] was 1.7 µM (≈ 5.07 µg/mL), the MIC [51] was 2.7 µM (≈ 8.05 µg/mL) and the MIC [52] was 20 µM (≈ 59.6 µg/mL). For the same compound, the MIC [53] was 3.71 µM (≈ 11 µg/mL) and the MIC [54] was no less than 83.8 µM.
